Data: patent US6630471B1, “Substituted triazolo-pyridazine derivative, pharmaceutical compositions made therefrom” (Merck Sharp & Dohme Ltd., priority 1998, dated 2003)

Experiments:
[1] = aqueous solubility; assay type: physicochemical
Source text: This conversion is slow due to the low aqueous solubility of Compound I in relation to the large excess of solid compound slurried.

[2] = moisture vapour sorption (adsorption/desorption isotherm); assay type: physicochemical
Method: These moisture vapour sorption studies show formation of a dihydrate above 80% relative humidity (RH) at 25° C. Hysteresis indicative of hydrate formation is seen to occur, with desorption occurring below ca. 60% RH.

SMILES: CCn1ncnc1COc1nn2c(-c3ccccc3F)nnc2cc1C(C)(C)C [Compound I, 7-(1,1-Dimethylethyl)-6-(2-ethyl-2H-1,2,4-triazol-3-ylmethoxy)-3-(2-fluorophenyl)-1,2,4-triazolo[4,3-b]pyridazine]
- aqueous solubility [1]: low

SMILES: CCn1ncnc1COc1nn2c(-c3ccccc3F)nnc2cc1C(C)(C)C [dihydrate of polymorph A, 7-(1,1-Dimethylethyl)-6-(2-ethyl-2H-1,2,4-triazol-3-ylmethoxy)-3-(2-fluorophenyl)-1,2,4-triazolo[4,3-b]pyridazine]
- stability of the dihydrate ([2]; humidity): stable, but only at elevated humidities

SMILES: CCn1ncnc1COc1nn2c(-c3ccccc3F)nnc2cc1C(C)(C)C [Compound I polymorph A, 7-(1,1-Dimethylethyl)-6-(2-ethyl-2H-1,2,4-triazol-3-ylmethoxy)-3-(2-fluorophenyl)-1,2,4-triazolo[4,3-b]pyridazine]
- relative humidity of dihydrate formation ([2]; 25° C., adsorption): above 80 % relative humidity (RH)
- relative humidity of desorption (hysteresis) ([2]; 25° C., desorption): < 60 % RH
